Reference: patent US20060211751A1, “Zolmitriptan crystal forms” (priority 2004, published 2006)

Legend:
Format in all cases: physicochemical
[1] = Transformation by pressing (crystal form before and after pressing); details: for Crystal Form after pressing: 100 mg pressed with approximately 1300 psi during 2 minutes
[2] = Transformation by slurry in other solvents (n-hexane, toluene, water) and drying, form determined by XRD
From the text: Similarly to example 6 Zolmitriptan samples were slurried from other solvents or solvent systems after dissolution and precipitation from a specific solvent.

[3] = Transformation of zolmitriptan crystal forms by heating in a conventional oven, form determined by XRD; details: about 1.5 to 2 hours, conventional oven, XRD
Method: Zolmitriptan (0.5 g) crystalline forms were heated in a conventional oven for a period of about 1.5 to 2 hours at different temperatures. The crystal form of the samples was determined by XRD before and after heating.

Compound	Crystal Form after pressing [1]	transformation to other crystal form on pressing [1]	XRD sample (form after treatment) ([2]; Toluene, dried 63 °C under reduced pressure)	XRD sample (form after treatment) ([2]; Water, dried 63 °C under reduced pressure)	XRD sample (form after treatment) ([2]; immersed in 10 v/w Toluene, filtered, sucked ½ hour on Buchner)	XRD sample (form after treatment) ([2]; immersed in 10 v/w Water, filtered, sucked ½ hour on Buchner)	XRD sample (form after treatment) ([2]; immersed in 10 v/w n-Hexane, filtered, sucked ½ hour on Buchner)	XRD sample (form after treatment) ([2]; n-Hexane, dried 63 °C under reduced pressure)	Crystal form after heating ([3]; heating temp. 60 °C)	Crystal form after heating ([3]; heating temp. 90 °C)
CN(C)CCc1c[nH]c2ccc(C[C@H]3COC(=O)N3)cc12 [Form N]	Form N	not transform to other crystal form	Form A	Form A	Form K	Form A	Form D	Form A	N + A	
CN(C)CCc1c[nH]c2ccc(C[C@H]3COC(=O)N3)cc12 [Form L]	Form L	not transform to other crystal form								A +
